Assay results from patent publication US12692254B2, “Benzimidazole inhibitors of PAD enzymes” (BRISTOL-MYERS SQUIBB COMPANY, priority 2018, dated 2026).

Molecular target: human PAD4 (hPAD4) (Homo sapiens, UniProt Q9UM07)
Assay: RFMS human PAD4 functional assay (rapid-fire mass spectrum)
Type: biochemical
Settings: 5 nM hPAD4 enzyme, 250 μM BAEE, 50 μM Calcium; 30 min preincubation, 90 min reaction at 37° C.
How it was run: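 PAD4 (10 nM) preincubated 30 min with compound (top final 50 μM), then BAEE substrate added in pH 7.5 HEPES buffer with DTT, 50 μM calcium, TPEN; 90 min at 37° C. After TCA quench, citrulline derivatized with phenyl glyoxal (4 mM final, 30 min, 37° C) and quantified by RapidFire MS against internal standard.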

human PAD4 (hPAD4), sequence (Q9UM07 whole entry): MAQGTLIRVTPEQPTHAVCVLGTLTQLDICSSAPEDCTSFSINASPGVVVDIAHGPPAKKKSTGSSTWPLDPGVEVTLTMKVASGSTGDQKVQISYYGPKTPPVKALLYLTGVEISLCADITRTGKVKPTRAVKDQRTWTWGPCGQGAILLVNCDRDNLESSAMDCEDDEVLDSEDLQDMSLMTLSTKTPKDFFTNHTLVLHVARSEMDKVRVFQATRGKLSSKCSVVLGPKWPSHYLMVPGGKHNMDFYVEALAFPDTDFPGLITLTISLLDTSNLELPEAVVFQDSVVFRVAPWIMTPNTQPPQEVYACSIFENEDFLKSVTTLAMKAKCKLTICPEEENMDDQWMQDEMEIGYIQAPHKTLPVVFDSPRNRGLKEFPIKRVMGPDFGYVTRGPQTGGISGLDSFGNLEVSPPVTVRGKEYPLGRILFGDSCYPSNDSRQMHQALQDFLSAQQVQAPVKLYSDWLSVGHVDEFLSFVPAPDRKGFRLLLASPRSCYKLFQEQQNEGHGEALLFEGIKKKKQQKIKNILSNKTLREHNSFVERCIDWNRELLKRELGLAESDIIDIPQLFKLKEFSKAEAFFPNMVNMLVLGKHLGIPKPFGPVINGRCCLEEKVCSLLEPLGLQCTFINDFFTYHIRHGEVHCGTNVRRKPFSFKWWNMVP

IC50 [µM] | Structure (SMILES)
0.228 | Cc1cc(C(=O)N2CC3CCC2[C@@H]3N)cc2nc(-c3cc4cccnc4n3CC3CC3)n(CC3CN(C(=O)c4ccc(C#N)cc4)C3)c12 (stereo partly drawn) [Example 471, 4-[3-({5-[(7R)-7-amino-2-azabicyclo[2.2.1]heptane-2-carbonyl]-2-[1-(cyclopropylmethyl)-1H-pyrrolo[2,3-b]pyridin-2-yl]-7-methyl-1H-1,3-benzodiazol-1-yl}methyl)azetidine-1-carbonyl]benzonitrile]
0.063 | COc1cc(C(=O)N2CC3CCC2[C@@H]3N)cc2nc(-c3cc4ccccc4n3CC3CC3)n(CC3CN(C(=O)c4cccs4)C3)c12 (stereo partly drawn) [Example 457, (7R)-2-{2-[1-(cyclopropylmethyl)-1H-indol-2-yl]-7-methoxy-1-{[1-(thiophene-2-carbonyl)azetidin-3-yl]methyl}-1H-1,3-benzodiazole-5-carbonyl}-2-azabicyclo[2.2.1]heptan-7-amine]
0.032 | COc1cc(C(=O)N2C[C@H]3CC[C@@H]2[C@@H]3N)cc2nc(-c3cc4ccccc4n3C)n(CC3CN(c4ccnc(C#N)n4)C3)c12 [Example 10, 4-[3-({5-[(1R,4R,7R)-7-amino-2-azabicyclo[2.2.1]heptane-2-carbonyl]-7-methoxy-2-(1-methyl-1H-indol-2-yl)-1H-1,3-benzodiazol-1-yl}methyl)azetidin-1-yl]pyrimidine-2-carbonitrile]
0.403 | COc1cc(C(=O)N2C[C@H]3CC[C@@H]2[C@@H]3N)cc2nc(-c3cc4cccnc4n3CC3CC3)n(C3CN(c4ccccc4)C3)c12 [Example 81, (1R,4R,7R)-2-{2-[1-(cyclopropylmethyl)-1H-pyrrolo[2,3-b]pyridin-2-yl]-7-methoxy-1-(1-phenylazetidin-3-yl)-1H-1,3-benzodiazole-5-carbonyl}-2-azabicyclo[2.2.1]heptan-7-amine]
0.041 | N[C@@H]1[C@@H]2CC[C@H]1N(C(=O)c1cc(Cl)c3c(c1)nc(-c1cc4cccnc4n1CC1CC1)n3CC1CN(C(=O)c3ccccc3)C1)C2 [Example 89, (3-((5-((1R,4R,7R)-7-amino-2-azabicyclo[2.2.1]heptane-2-carbonyl)-7-chloro-2-(1-(cyclopropylmethyl)-1H-pyrrolo[2,3-b]pyridin-2-yl)-1H-benzo[d]imidazol-1-yl)methyl)azetidin-1-yl)(phenyl)methanone]
0.026 | COc1cc(C(=O)N2C[C@H]3CC[C@@H]2[C@@H]3N)cc2nc(-c3cc4ccccc4n3CC3CC3)n(CC3CN(C(=O)c4ccc(C#N)cc4F)C3)c12 [Example 163, 4-[3-({5-[(1R,4R,7R)-7-amino-2-azabicyclo[2.2.1]heptane-2-carbonyl]-2-[1-(cyclopropylmethyl)-1H-indol-2-yl]-7-methoxy-1H-1,3-benzodiazol-1-yl}methyl)azetidine-1-carbonyl]-3-fluorobenzonitrile]
0.126 | COc1cc(N2CC(Cn3c(-c4cc5cccnc5n4CC4CC4)nc4cc(C(=O)N5C[C@H]6CC[C@@H]5[C@@H]6N)cc(OC)c43)C2)ccn1 [Example 49, (1R,4R,7R)-2-{2-[1-(cyclopropylmethyl)-1H-pyrrolo[2,3-b]pyridin-2-yl]-7-methoxy-1-{[1-(2-methoxypyridin-4-yl)azetidin-3-yl]methyl}-1H-1,3-benzodiazole-5-carbonyl}-2-azabicyclo[2.2.1]heptan-7-amine]
0.034 | COc1cc(C(=O)N2CC3CCC2[C@@H]3N)cc2nc(-c3cc4ccccc4n3CC3CC3)n(CC3CN(C(=O)c4ccc(C#N)cn4)C3)c12 (stereo partly drawn) [Example 435, 6-[3-({5-[(7R)-7-amino-2-azabicyclo[2.2.1]heptane-2-carobnyl]-2-[1-(cyclopropylmethyl)-1H-indol-2-yl]-7-methoxy-1H-1,3-benzodiazol-1-yl}methyl)azetidine-1-carobnyl]pyridine-3-carbonitrile]
0.54 | COc1cc(C(=O)N2CC3CCC2[C@@H]3N)cc2nc(-c3cc4cccnc4n3CC3CC3)n(C3CCN(c4ccnc(C#N)n4)CC3)c12 (stereo partly drawn) [Example 237, 4-(4-{5-[(1R,4R,7R)-7-amino-2-azabicyclo[2.2.1]heptane-2-carbonyl]-2-[1-(cyclopropylmethyl)-1H-pyrrolo[2,3-b]pyridin-2-yl]-7-methoxy-1H-1,3-benzodiazol-1-yl}piperidin-l-yl)pyrimidine-2-carbonitrile]
0.01 | COc1cc(C(=O)N2CC3CCC2[C@@H]3N)cc2nc(-c3cc4ccccc4n3CC3CC3)n(CC3CN(C(=O)c4ccsc4)C3)c12 (stereo partly drawn) [Example 416, (7R)-2-{2-[1-(cyclopropylmethyl)-1H-indol-2-yl]-7-methoxy-1-{[1-(thiophene-3-carbonyl)azetidin-3-yl]methyl}-1H-1,3-benzodiazole-5-carbonyl}-2-azabicyclo[2.2.1]heptan-7-amine]
0.042 | COc1cc(C(=O)N2C[C@H](N)C[C@@H](F)C2)cc2nc(-c3cc4cccnc4n3CC3CC3)n(Cc3cnn(-c4ccc(C#N)cn4)c3)c12 [Example 386, 6-[4-({5-[(3R,5R)-3-amino-5-fluoropiperidine-1-carbonyl]-2-[1-(cyclopropylmethyl)-1H-pyrrolo[2,3-b]pyridin-2-yl]-7-methoxy-1H-1,3-benzodiazol-1-yl}methyl)-1H-pyrazol-1-yl]pyridine-3-carbonitrile]
1.16 | COc1cc(C(=O)N2C[C@H]3CC[C@@H]2[C@@H]3N)cc2nc(-c3cc4cccnc4n3CC3CC3)n(C3CCNCC3)c12 [Example 309, (1R,4R,7R)-2-{2-[1-(cyclopropylmethyl)-1H-pyrrolo[2,3-b]pyridin-2-yl]-7-methoxy-1-(piperidin-4-yl)-1H-1,3-benzodiazole-5-carbonyl}-2-azabicyclo[2.2.1]heptan-7-amine]
0.373 | COc1cc(C(=O)N2C[C@H]3CC[C@@H]2[C@@H]3N)cc2nc(-c3cc4cccnc4n3C)n(CC3CN(c4cncnc4C#N)C3)c12 [Example 78, 5-[3-({5-[(1R,4R,7R)-7-amino-2-azabicyclo[2.2.1]heptane-2-carbonyl]-7-methoxy-2-{1-methyl-1H-pyrrolo[2,3-b]pyridin-2-yl}-1H-1,3-benzodiazol-1-yl}methyl)azetidin-1-yl]pyrimidine-4-carbonitrile]
0.051 | COc1cc(C(=O)N2CC3CCC2[C@@H]3N)cc2nc(-c3cc4ccccc4n3CC3CC3)n(Cc3cnn(-c4ccc[n+]([O-])c4)c3)c12 (stereo partly drawn) [Example 396, 3-[4-({5-[(7R)-7-amino-2-azabicyclo[2.2.1]heptane-2-carbonyl]-2-[1-(cyclopropylmethyl)-1H-indol-2-yl]-7-methoxy-1H-1,3-benzodiazol-1-yl}methyl)-1H-pyrazol-1-yl]pyridin-1-ium-1-olate]
0.782 | COc1cc(C(=O)N2C[C@H]3CC[C@@H]2[C@@H]3N)cc2nc(-c3cc4cccnc4n3CC3CC3)n(C3CN(C(=O)c4ccnc(O)c4)C3)c12 [Example 190, 4-(3-{5-[(1R,4R,7R)-7-amino-2-azabicyclo[2.2.1]heptane-2-carbonyl]-2-[1-(cyclopropylmethyl)-1H-pyrrolo[2,3-b]pyridin-2-yl]-7-methoxy-1H-1,3-benzodiazol-1-yl}azetidine-1-carbonyl)pyridin-2-ol]
0.094 | COc1cc(C(=O)N2CC3CCC2[C@@H]3N)cc2nc(-c3cc4cccnc4n3CC3CC3)n(CC3CN(c4cc(Cl)cnc4C#N)C3)c12 (stereo partly drawn) [Example 38, 3-[3-({5-[(1R,4R,7R)-7-amino-2-azabicyclo[2.2.1]heptane-2-carbonyl]-2-[1-(cyclopropylmethyl)-1H-pyrrolo[2,3-b]pyridin-2-yl]-7-methoxy-1H-1,3-benzodiazol-l-yl}methyl)azetidin-1-yl]-5-chloropyridine-2-carbonitrile]
0.072 | COc1cc(C(=O)N2C[C@H](N)C[C@@H](F)C2)cc2nc(-c3cc4cccnc4n3CC3CC3)n(Cc3cnn(-c4cccc(O)n4)c3)c12 [Example 407, 6-[4-({5-[(3R,5R)-3-amino-5-fluoropipendine-1-carbonyl]-2-[1-(cyelopropylmethyl)-1H-pyrrolo[2,3-b]pyridin-2-yl]-7-methoxy-1H-1,3-benzodiazol-1-yl}methyl)-1H-pyrazol-1-yl]pyridin-2-ol]
0.044 | COc1cc(C(=O)N2C[C@H]3CC[C@@H]2[C@@H]3N)cc2nc(-c3cc4ccccc4n3CC3CC3)n(Cc3cnn(Cc4ccccc4)c3)c12 [Example 259, (1R,4R,7R)-2-{1-[(1-benzyl-1H-pyrazol-4-yl)methyl]-2-[1-(cyclopropylmethyl)-1H-indol-2-yl]-7-methoxy-1H-1,3-benzodiazole-5-carbonyl}-2-azabicyclo[2.2.1]heptan-7-amine]
0.066 | COc1cc(C(=O)N2CC3CCC2[C@@H]3N)cc2nc(-c3cc4cccnc4n3CC3CC3)n(CC3CN(C(=O)c4ccc(C#N)c(F)c4)C3)c12 (stereo partly drawn) [Example 459, 4-[3-({5-[(7R)-7-amino-2-azabicyclo[2.2.1]heptane-2-carbonyl]-2-[1-(cyclopropylmethyl)-1H-pyrrolo[2,3-b]pyridin-2-yl]-7-methoxy-1H-1,3-benzodiazol-1-yl}methyl)azetidine-1-carbonyl]-2-fluorobenzonitrile]
0.024 | COc1cc(C(=O)N2CC3CCC2[C@@H]3N)cc2nc(-c3cc4cccnc4n3CC3CC3)n(Cc3cnn(-c4ccc(Cl)cn4)c3)c12 (stereo partly drawn) [Example 360, (7R)-2-(1-{[1-(5-chloropyridin-2-yl)-1H-pyrazol-4-yl]methyl}-2-[1-(cyclopropylmethyl)-1H-pyrrolo[2,3-b]pyridin-2-yl]-7-methoxy-1H-1,3-benzodiazole-5-carbonyl)-2-azabicyclo[2.2.1]heptan-7-amine]
0.033 | COc1cc(C(=O)C2C[C@H]3CC[C@H]2[C@@H]3N)cc2nc(-c3cc4ccccc4n3CC3CC3)n(C[C@H]3CCNC3)c12 (stereo partly drawn) [Example 273, (1R,4R,7R)-2-{2-[1-(cyclopropylmethyl)-1H-indol-2-yl]-7-methoxy-1-{[(3S)-pyrrolidin-3-yl]methyl}-1H-1,3-benzodiazole-5-carbonyl}bicyclo[2.2.1]heptan-7-amine]
